Laboratory results published in the supplement of paper PMC11061612.

Tests used:
Experiment in all cases: combination Emax (second highest fraction inhibited in the dose matrix, 72 h); higher = more inhibition; extreme values may be limits of the assay
[1] = tested on: SKG-IIIa (Cervical Carcinoma)
Method in brief: (§1)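 Bliss excess equals the observed combination effect minus the expected value EA + EB − EA·EB, where EA and EB are the effects of each agent alone. Combination Emax is the second-highest inhibition within the matrix. Inhibition was scaled from CellTiter-Glo 2.0 luminescence, with 0 set by vehicle wells and 1 by blank wells, after 72 hours of two-drug dosing of cells plated in 1536-well plates.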

[2] = tested on: NCI-H3118 (Head and Neck Carcinoma)
Method in brief: as §1

[3] = tested on: PL4 (Pancreatic Carcinoma)
Method in brief: as §1

[4] = tested on: KALS-1 (Glioblastoma)
Method in brief: as §1

[5] = tested on: KP-4 (Pancreatic Carcinoma)
Method in brief: as §1

[6] = tested on: NCI-H1341 (Small Cell Lung Carcinoma)
Method in brief: as §1

[7] = tested on: COR-L88 (Small Cell Lung Carcinoma)
Method in brief: as §1

[8] = tested on: SK-CO-1 (Colorectal Carcinoma)
Method in brief: as §1

[9] = tested on: NMC-G1 (Low Grade Glioma)
Method in brief: as §1

[10] = tested on: NCI-H226 (Mesothelioma)
Method in brief: as §1

[11] = tested on: HT-1080 (Other Solid Carcinomas)
Method in brief: as §1

[12] = tested on: MOLP-8 (Plasma Cell Myeloma)
Method in brief: as §1

[13] = tested on: C-33-A (Cervical Carcinoma)
Method in brief: as §1

[14] = tested on: CL-11 (Colorectal Carcinoma)
Method in brief: as §1

[15] = tested on: IST-MEL1 (Melanoma)
Method in brief: as §1

[16] = tested on: MOLT-13 (T-Lymphoblastic Leukemia)
Method in brief: as §1

[17] = tested on: GAK (Melanoma)
Method in brief: as §1

[18] = tested on: SAT (Head and Neck Carcinoma)
Method in brief: as §1

[19] = tested on: MS-1 (Small Cell Lung Carcinoma)
Method in brief: as §1

[20] = tested on: SiHa (Cervical Carcinoma)
Method in brief: as §1

Row | SMILES | combination Emax [1] | combination Emax [2] | combination Emax [3] | combination Emax [4] | combination Emax [5] | combination Emax [6] | combination Emax [7] | combination Emax [8] | combination Emax [9] | combination Emax [10] | combination Emax [11] | combination Emax [12] | combination Emax [13] | combination Emax [14] | combination Emax [15] | combination Emax [16] | combination Emax [17] | combination Emax [18] | combination Emax [19] | combination Emax [20]
1 | CN(C)CCCOc1ccc(-c2ccc3ncc4c(c3c2)n(C2CCOCC2)c(=O)n4C)cn1 [AZD0156] + C[C@@H]1COCCN1C2=NC(=NC(=C2)C3(CC3)[S@](=N)(=O)C)C4=C5C=CNC5=NC=C4 [AZD6738] (first compound max 1 µM, 7x7, partner max 10 µM) | 0.233 | 0.672 | 0.718 | 0.868 | 0.451 | 0.849 | 0.8 | 0.721 | 0.269 | 0.0975 | 0.507 | 0.848 | 0.886 | 0.767 | 0.745 | 0.925 | 0.703 | 0.361 | 0.873 | 0.234
2 | C=CCn1c(=O)c2cnc(Nc3ccc(N4CCN(C)CC4)cc3)nc2n1-c1cccc(C(C)(C)O)n1 [AZD1775] + O=C(c1cc(Cc2n[nH]c(=O)c3ccccc23)ccc1F)N1CCN(C(=O)C2CC2)CC1 [Olaparib] (first compound max 1 µM, partner max 10 µM) | 0.369 | 0.889 | 0.494 | 0.896 | 0.721 | 0.525 | 0.594 | 0.662 | 0.431 | 0.342 | 0.354 | 0.754 | 0.914 | 0.584 | 0.49 | 0.975 | 0.804 | 0.449 | 0.924 | 0.199
3 | CCN(CCO)CCCOc1ccc2c(Nc3cc(CC(=O)Nc4cccc(F)c4)[nH]n3)ncnc2c1 [AZD2811] + C=CCn1c(=O)c2cnc(Nc3ccc(N4CCN(C)CC4)cc3)nc2n1-c1cccc(C(C)(C)O)n1 [AZD1775] (first compound max 1 µM, partner max 1 µM) | 0.261 | 0.807 | 0.554 | 0.841 | 0.651 | 0.632 | 0.64 | 0.674 | 0.254 | 0.185 | 0.331 | 0.76 | 0.882 | 0.612 | 0.504 | 1 | 0.682 | 0.41 | 0.848 | 0.164
4 | CCN(CCO)CCCOc1ccc2c(Nc3cc(CC(=O)Nc4cccc(F)c4)[nH]n3)ncnc2c1 [AZD2811] + C[C@@H]1COCCN1C2=NC(=NC(=C2)C3(CC3)[S@](=N)(=O)C)C4=C5C=CNC5=NC=C4 [AZD6738] (first compound max 1 µM, 7x7, partner max 10 µM) | 0.326 | 0.599 | 0.657 | 0.828 | 0.611 | 0.733 | 0.615 | 0.7 | 0.372 | 0.233 | 0.336 | 0.791 | 0.87 | 0.777 | 0.731 | 0.993 | 0.564 | 0.276 | 0.72 | 0.225
5 | CCN(CCO)CCCOc1ccc2c(Nc3cc(CC(=O)Nc4cccc(F)c4)[nH]n3)ncnc2c1 [AZD2811] + O=C(c1cc(Cc2n[nH]c(=O)c3ccccc23)ccc1F)N1CCN(C(=O)C2CC2)CC1 [Olaparib] (first compound max 1 µM, 7x7, partner max 10 µM) | 0.147 | 0.208 | 0.269 | 0.296 | 0.513 | 0.294 | 0.295 | 0.615 | 0.318 | 0.236 | 0.215 | 0.434 | 0.289 | 0.202 | 0.259 | 0.997 | 0.295 | 0.215 | 0.454 | 0.173
6 | CN(CCO)CC[C@H](CSc1ccccc1)Nc1ccc(S(=O)(=O)NC(=O)c2ccc(N3CCC([C@@H](O)c4ccccc4-c4ccc(Cl)cc4)CC3)cc2)cc1S(=O)(=O)C(F)(F)F [AZD4320] + C1CN(CCC1(C(=O)N[C@@H](CCO)C2=CC=C(C=C2)Cl)N)C3=NC=NC4=C3C=CN4 [Capivasertib] (first compound max 1 µM, 7x7, partner max 3 µM) | 0.131 | 0.0845 | 0.497 | 0.485 | 0.101 | 0.974 | 0.971 | 0.659 | 0.507 | 0.227 | 0.5 | 0.254 | 0.518 | 0.147 | 0.26 | 0.913 | 0.135 | 0.418 | 0.52 | 0.171
7 | CN(CCO)CC[C@H](CSc1ccccc1)Nc1ccc(S(=O)(=O)NC(=O)c2ccc(N3CCC([C@@H](O)c4ccccc4-c4ccc(Cl)cc4)CC3)cc2)cc1S(=O)(=O)C(F)(F)F [AZD4320] + C=CCn1c(=O)c2cnc(Nc3ccc(N4CCN(C)CC4)cc3)nc2n1-c1cccc(C(C)(C)O)n1 [AZD1775] (first compound max 1 µM, partner max 1 µM) | 0.426 | 0.916 | 0.708 | 0.975 | 0.716 | 1 | 0.978 | 0.867 | 0.785 | 0.407 | 0.718 | 0.831 | 0.953 | 0.507 | 0.85 | 1 | 0.833 | 0.708 | 1 | 0.112
8 | CN(CCO)CC[C@H](CSc1ccccc1)Nc1ccc(S(=O)(=O)NC(=O)c2ccc(N3CCC([C@@H](O)c4ccccc4-c4ccc(Cl)cc4)CC3)cc2)cc1S(=O)(=O)C(F)(F)F [AZD4320] + CCN(CCO)CCCOc1ccc2c(Nc3cc(CC(=O)Nc4cccc(F)c4)[nH]n3)ncnc2c1 [AZD2811] (first compound max 1 µM, 7x7, partner max 1 µM) | 0.191 | 0.333 | 0.544 | 0.508 | 0.368 | 1 | 0.974 | 0.889 | 0.718 | 0.49 | 0.594 | 0.418 | 0.151 | 0.0894 | 0.407 | 1 | 0.257 | 0.375 | 0.597 | 0.162
9 | CN(CCO)CC[C@H](CSc1ccccc1)Nc1ccc(S(=O)(=O)NC(=O)c2ccc(N3CCC([C@@H](O)c4ccccc4-c4ccc(Cl)cc4)CC3)cc2)cc1S(=O)(=O)C(F)(F)F [AZD4320] + CN(C)CCCOc1ccc(-c2ccc3ncc4c(c3c2)n(C2CCOCC2)c(=O)n4C)cn1 [AZD0156] (first compound max 1 µM, 7x7, partner max 1 µM) | 0.109 | 0.0719 | 0.462 | 0.227 | 0.101 | 0.974 | 0.957 | 0.712 | 0.756 | 0.224 | 0.549 | 0.315 | 0.126 | 0.144 | 0.249 | 0.949 | 0.209 | 0.193 | 0.68 | 0.108
10 | CN(CCO)CC[C@H](CSc1ccccc1)Nc1ccc(S(=O)(=O)NC(=O)c2ccc(N3CCC([C@@H](O)c4ccccc4-c4ccc(Cl)cc4)CC3)cc2)cc1S(=O)(=O)C(F)(F)F [AZD4320] + C[C@@H]1COCCN1C2=NC(=NC(=C2)C3(CC3)[S@](=N)(=O)C)C4=C5C=CNC5=NC=C4 [AZD6738] (first compound max 1 µM, 7x7, partner max 10 µM) | 0.536 | 0.765 | 0.878 | 0.939 | 0.487 | 1 | 0.992 | 0.928 | 0.876 | 0.193 | 0.656 | 0.787 | 0.928 | 0.895 | 0.941 | 1 | 0.793 | 0.587 | 0.934 | 0.246
11 | CN(CCO)CC[C@H](CSc1ccccc1)Nc1ccc(S(=O)(=O)NC(=O)c2ccc(N3CCC([C@@H](O)c4ccccc4-c4ccc(Cl)cc4)CC3)cc2)cc1S(=O)(=O)C(F)(F)F [AZD4320] + C[C@@H](Nc1cc(F)cc(F)c1)c1cc(C(=O)N(C)C)cc2c(=O)cc(N3CCOCC3)oc12 [AZD8186] (first compound max 1 µM, 7x7, partner max 3 µM) | 0.471 | 0.39 | 0.694 | 0.5 | 0.273 | 0.99 | 0.966 | 0.917 | 0.814 | 0.279 | 0.704 | 0.414 | 0.515 | 0.378 | 0.405 | 0.996 | 0.312 | 0.446 | 0.613 | 0.33
12 | CN(CCO)CC[C@H](CSc1ccccc1)Nc1ccc(S(=O)(=O)NC(=O)c2ccc(N3CCC([C@@H](O)c4ccccc4-c4ccc(Cl)cc4)CC3)cc2)cc1S(=O)(=O)C(F)(F)F [AZD4320] + Cc1cc2ncnn2cc1Nc1ncc2c(n1)n(C1CCOCC1)c(=O)n2C [AZD7648] (first compound max 1 µM, 7x7, partner max 10 µM) | 0.12 | 0.0876 | 0.421 | 0.343 | 0.136 | 0.999 | 0.964 | 0.646 | 0.759 | 0.0544 | 0.535 | 0.444 | 0.22 | 0.126 | 0.415 | 0.951 | 0.314 | 0.305 | 0.586 | 0.12
